Results reported in US5344841A, “Bis-(hydroxylakylamino)-anthraquinone inhibitors of protein kinase C” (Sphinx Pharmaceuticals Corporation, priority 1992, dated 1994).
Counter-ions that a name gives are not always drawn. Like-named read-outs stand apart in the source and are kept apart here.

Assays:
[1] = tested on: 8226/ADR adriamycin resistant line of 8226 cells; experiment: Human tumor growth inhibition, 3H-thymidine incorporation, 8226/ADR; assay type: cell-based; conditions: 3H-thymidine uptake
[2] = tested on: 8226/ADR adriamycin resistant line of 8226 cells; experiment: as above; assay type: cell-based; conditions: 8226/ADR vs 8226
Source text: (§1) MCF-7 a human breast tumor cell line, and MCF-7/ADR an adriamycin resistant line of MCF-7 cells were obtained from the National Cancer Institute, Frederick, Md. NHEK a human keratinocyte cell line was obtained from Clonetic Corp., San Diego, Calif. 8226 a human myeloma cell line, 8226/MT a Mitoxantrone resistant line of 8226 cells, and 8226 ADR an adriamycin resistant line of 8226 cells were obtained from Dr. Bill Dalton, Arizona Cancer Center, Tuscon, Ariz.
(§2) Human tumor cells are trypsinized (0.05% trypsin, GIBCO), counted with a hemacytometer and seeded at a concentration of 10,000 cells/well in a 96 well microtiter plate. After allowing cells to attach to the surface overnight, the culture medium is aspirated and replaced with 100 μl of fresh medium. Test agents are diluted to determine dose response at 2× final concentration and added in quadruplicate at 100 μl/well to bring the total volume of each well to 200 μl. The microtiter plate is then incubated at 37° C. 5% CO2 overnight (18-24 hrs) before ^3 H-thymidine is added at a concentration of 0.5 μCi/well in 50 μl culture medium. The plate is incubated again for 4 hrs under the same conditions as above. Supernatant is then aspirated and 50 μl trypsin (0.05%, GIBCO) is added to each well. Cells are checked microscopically to determine detachment from surfaces, and plates are then harvested with a cell harvester (PHD, Cambridge Technology, Inc.) Filter papers corresponding to wells are placed in scintillation vials and counted to determine the amount of ^3 H-thymidine incorporated by the cells. Test agent response is compared to a positive control of cell wells with culture media only to determine the IC50. IC50 is the concentration of test compound required to inhibit fifty percent of the incorporation of ^3 H-thymidine into proliferating cells not exposed to test agent. Uptake of ^3 H-thymidine is a standard test for measuring the metabolism of cells. Cells which are actively proliferating take up ^3 H-thymidine, whereas cells that are not proliferating take up ^3 H-thymidine at much slower rates or not at all. Test agents that inhibit the uptake of ^3 H-thymidine thus slow the growth of cells.

[3] = tested on: MCF-7/ADR adriamycin resistant line of MCF-7 cells; experiment: Human tumor growth inhibition, 3H-thymidine incorporation, MCF-7/ADR; assay type: cell-based; conditions: NCI/ADR-RES, 3H-thymidine uptake
[4] = tested on: 8226 human myeloma cell line; experiment: Human tumor growth inhibition, 3H-thymidine incorporation, 8226; assay type: cell-based; conditions: read-out: IC50 8226
Source text: as §1, §2

[5] = tested on: MCF-7 human breast tumor cell line; experiment: Human tumor growth inhibition, 3H-thymidine incorporation, MCF-7; assay type: cell-based; conditions: Homo sapiens, MCF7, 3 h, read-out: IC50 MCF-7
Source text: as §1, §2

[6] = tested on: MCF-7/ADR adriamycin resistant line of MCF-7 cells; experiment: Human tumor growth inhibition, 3H-thymidine incorporation, MCF-7/ADR; assay type: cell-based; conditions: MCF-7/ADR vs MCF-7
Source text: as §1, §2

protein kinase C = experiment: Protein kinase C (PKC) inhibition assay (histone H1 phosphorylation); assay type: biochemical; conditions: rat brain PKC, histone H1 substrate
Experimental: The protein kinase C (PKC) assay is designed to duplicated the in vivo conditions required for protein kinase C function. Therefore, pH, salt and cofactor concentrations are similar to physiologic levels. Histone H1 (lysine rich) is used in the assay as the phosphorylation acceptor protein because it is readily available and serves as a good substrate for protein kinase C. The enzyme is prepared from rat brain and is purified to apparent homogeneity as determined by a single band on silver stained SDS-polyacrylamide. Studies on the mechanism of regulation of protein kinase C by phospholipids, DAG and Ca^+2 have been hampered by the physical properties of the lipid cofactors. In the screening assay, phosphatidylserine (PS) and DAG are cosonicated to form unilamellar and multilamellar vesicles. The concentration of lipids in the assay are suboptimal to maximize the detection potential of the assay for inhibitors. […] The assay is started with the addition of enzyme and stopped after 10 min by the addition of 25% trichloroacetic acid (TCA) and 1.0 mg/ml bovine serum albumin (BSA). The radioactive histone product is retained and washed on glass fiber filters that allow the unreacted ^32 P-ATP to pass through. The amount of phosphorylation is determined by the radioactivity measured in a scintillation counter. Controls are included in every assay to measure background activity in the absence of enzyme, activity in the absence of lipids and the maximum enzyme activity with saturating levels of the activator lipids.

human neutrophils = experiment: Neutrophil superoxide anion (O2-) release assay, PMA-stimulated; assay type: cell-based; conditions: PMA-stimulated O2- production
Experimental: Neutrophils were isolated form whole blood collected from human volunteers. All reagent materials were obtained from Sigma Chemical Company with the exception of isotonic saline (Travenol Lab., Inc. Deerfield, Ill.) and lymphocyte separation medium (Organon Teknika, Durham, N.C.). Whole blood was drawn and mixed with sodium heparin (final conc. 10 units/ml) to prevent clotting. An equal volume of dextran (3.0%) in isotonic saline was added, mixed, and allowed to settle for 30 min to bind red blood cells (RBC). The supernatant was removed, underlayered with lymphocyte separation medium and centrifuged for 40 min at 400 xg in a centrifuge (Beckman GPR, Norcross, Ga.). […] The washed pellet was resuspended in 10 ml HBSS and placed on ice before counting on a hemacytometer. The neutrophil cell concentration is adjusted to 2×10^6 cells/ml with HBSS before adding 0.8 ml cells to 12×75 mm polypropylene test tubes (Fisher Scientific). Test agents are diluted to determine dose response and added at 10×final concentration at a volume of 0.1 ml/tube in duplicate. […] Tubes are then centrifuged at 900 xg for 10 min, 0.5 ml supernatant is removed and added to 0.5 ml H2 O in a microcuvette. Optical density (OD) of cytochrome c is read in a spectrophotometer (Shimadzu) at 550 nm. The ΔOD of cytochrome c is obtained between PMA-stimulated and non-stimulated tubes, and the dose responses of the test agents are compared to the positive controls (which contain HBSS in place of test agents). PMA stimulates O2^- production which reduces cytochrome c. Reducing cytochrome c increases its absorbance, and the change in OD of cytochrome c is proportional to the amount of O2^- produced by PMA stimulation. Inhibition of the O2^- burst by test compounds of the invention is seen as a reduction in the change in optical density. Inhibition is expressed as IC50 μM and is the amount of test compound that will inhibit fifty percent of the PMA-stimulated respiratory outburst, i.e. O2^- production.

[7] = tested on: 8226/MT Mitoxantrone resistant line of 8226 cells; experiment: Human tumor growth inhibition, 3H-thymidine incorporation, 8226/MT; conditions: for Resistance Ratio (8226/MT): 8226/MT vs 8226; for IC50: Homo sapiens, read-out: IC50 8226/MT

Row | Compound | IC50 [1] [µM] | Resistance Ratio (8226/ADR) [2] | IC50 [3] [µM] | IC50 ([4]; 3H-thymidine uptake) [µM] | IC50 ([5]; 3H-thymidine uptake) [µM] | Resistance Ratio (IC50 MCF-7/ADR to IC50 MCF-7) [6] | IC50 (protein kinase C) [µM] | also measured
1 | O=C1c2ccccc2C(=O)c2c(NCC(O)CNCc3ccccc3)ccc(NCC(O)CCl)c21 (stereo not drawn) [Compound 1a-3] | 16.3 | 1.08 | 14.1 | 15 | 7.4 | 1.9 | – | –
2 | O=C1c2ccccc2C(=O)c2c(NCC(O)CNCc3ccccc3)ccc(NCC(O)CCl)c21 (stereo not drawn) [1a-3 (HCl)] | – | – | – | – | – | – | 110 | –
3 | CCN(CC)CC(O)CNc1ccc(NCC(O)CCl)c2c1C(=O)c1ccccc1C2=O (stereo not drawn) [1a-1 (base), 1-(3-diethylamino-2-hydroxypropylamino)-4-(chloro-2-hydroxypropylamino)-9,10 anthracenedione] | – | – | – | – | – | – | 180 | IC50 (human neutrophils; Homo sapiens, Neutrophil): > 6.25 µM
4 | COc1cccc2c1C(=O)c1c(O)c3c(c(O)c1C2=O)C[C@@](O)(C(=O)CO)C[C@@H]3O[C@H]1C[C@H](N)[C@H](O)[C@H](C)O1 [ADR, reference compound] | 0.57 | 11.4 | 4 | – | – | 200 | – | IC50 [4]: 0.05 µM; IC50 [5]: 0.02 µM; Resistance Ratio (8226/MT) [7]: 1; IC50 [7]: 50 nM
5 | O=C1c2c(O)ccc(O)c2C(=O)c2c(NCCNCCO)ccc(NCCNCCO)c21 [MT, reference compound] | 0.18 | 6 | 4 | 0.03 | 0.005 | 800 | – | Resistance Ratio (8226/MT) [7]: 3.5; IC50 [7]: 105 nM
6 | CCN(CC)CC(O)CNc1ccc(NCC(O)CCl)c2c1C(=O)c1ccccc1C2=O (stereo not drawn) [1a-1 (HCl), 1-(3-Diethylamino-2-Hydroxypropylamino)-4-(3-Chloro-2-Hydroxypropylamino)-9, 10-Anthracenedione Hydrochloride Salt] | – | – | – | – | – | – | – | IC50 (protein kinase C; Hydrochloride Salt): 230 µM; IC50 (protein kinase C; listed as 1a-1 (HCl salt), Hydrochloride Salt): 230 µM; IC50 (human neutrophils; Hydrochloride Salt): > 12.5 µM
7 | CCN(CC)CC(O)CNc1ccc(NCC(O)CO)c2c1C(=O)c1ccccc1C2=O (stereo not drawn) [1c-1 (HCl), 1-(3-Diethyl-2-Hydroxypropylamino)-4-(2,3-Dihydroxypropylamino)-9, 10-Anthracenedione Hydrochloride Salt] | – | – | – | – | – | – | 180 | –
8 | CCCNCC(O)CNc1ccc(NCC(O)CCl)c2c1C(=O)c1ccccc1C2=O (stereo not drawn) [1a-2 (HCl)] | – | – | – | – | – | – | 160 | –
9 | CCN(CC)CC(O)CNc1ccc(NCC(O)CO)c2c1C(=O)c1ccccc1C2=O (stereo not drawn) [Compound 1c-1] | 25 | 1.4 | – | 18 | – | – | – | –
10 | CCCNCC(O)CNc1ccc(NCC(O)CCl)c2c1C(=O)c1ccccc1C2=O (stereo not drawn) [Compound 1a-2] | 14.1 | 1.38 | 16 | 10.2 | 7.4 | 2.2 | – | –
